# Data as given in US10975116B2, “Methods of treating and preventing gastrointestinal motility disorders using aminosterols” (Enterin, Inc., priority 2013, dated 2021).
# “Also recorded” adds a separate entry of the source.
# Legend:
# [1] = test system: colon migrating motor complex (MMC); assay: Colonic motility and intraluminal pressure in excised colon segment; set-up: species or system mouse; settings: squalamine added to the colonic lumen
# Protocol: A segment of colon was excised from a mouse, and one end was attached to a glass tube housing a pressure sensor. A video camera recorded the visible contractions of the segment. When squalamine was added to the colonic lumen, the frequency of contractions increased about 2 fold, representing coordinated peristaltic waves that move toward the rectum.
# [2] = Recovery of squalamine from stool after oral dose (thin layer chromatography); type: in vivo, human; settings: 200 mg oral; all stool collected for 6 days; 60% acetonitrile/1% HCl extraction
# Protocol: 200 mg of squalamine was administered to a human […] as in the first example. All stool was collected for 6 days following administration. Stool was then extracted with 60% acetonitrile and 1% HCl overnight. The supernatant was collected and the presence of squalamine assessed by thin layer chromatography following published procedures. Approximately 80% of the dose could be recovered from the stool.
# [3] = test system: N-terminally acetylated alpha-synuclein bound to DOPE/DOPS/DOPC vesicles; assay: Displacement of alpha-synuclein from negatively charged vesicles (circular dichroism); type: binding
# Protocol: Alpha-synuclein was mixed with a preparation of vesicles consisting of DOPE (50%), DOPS (30%), DOPC (20%). The concentration of lipid was 2.4 mM; the concentration of N-terminally acetylated alpha-synuclein was 10 μM. The interaction was followed by circular dichoroism. The concentration of squalamine was increased in 40 μM increments. […] At a ratio of lipid to squalamine of 15:1, full displacement of alpha-synuclein was observed. Addition of squalamine to a solution of alpha-synuclein alone had no effect on the circular dichroism spectrum.
# gliobastoma = assay: Oral squalamine in brain tumor, single subject; type: in vivo, human
# Protocol: A person presented with headache and memory loss. […] The tumor was partially resected surgically, followed by local radiation. The subject was placed on a clinical protocol evaluating everolimus and temozolimide.
# In mid October 2013, the subject began squalamine capsules with a 100 mg single dose. […] Squalamine treatment continues.
# GLP-1 = GLP-1 release into the blood stream after oral squalamine and lipid/carbohydrate meal (ELISA); type: in vivo, human
# Protocol: Enteroendocrine cells, which contain entreric hormones, are known to respond to a variety of stimuli they contact in the intestinal lumen, and release hormones into the submucosa and subsequently into the bloodstream. In particular, GLP-1, the product of the L-cell, is known to have motility effects on the small intestine that resemble those observed after oral administration of squalamine. In this example, a lipid/carbohydrate meal was administered which is known to provoke the release of GLP-1 into the bloodstream. The GLP-1 response of the GI tract to the meal was compared in the presence or absence of squalamine, with blood levels of GLP-1 measured using an ELISA based immunoassay.
# • 1. Subject (BMI: […], no medical illness) was fasted overnight • 2. IV catheter 18 gauge implanted in R […] fossa • 3. Blood samples drawn at 9:30 A, 11 A, 11:30 A, 12:30 P, 1:30 P, 2 P, 2:30, 3, 3:30, 4:30, 5:30 • 4. Empty capsule and water at 10:30 A • 5. Lipid/carbohydrate meal (2 slices of white bread, each with 5.5 gms butter) at 2 P • 6. Blood samples: 2 ml into Becton-Dickenson Protease-inhibited Biomarker tubes; 3 ml into standard red top blood collection tubes. • 7. All samples were immediately spun at 3000 rpm×15 and serum or plasma aliquotted into 1.5 ml eppendorfs and then stored at −80° C. Squalamine Response • 1. Subject rested 3 days and re-evaluated 4 days after the Control response • 2. Fasted overnight • 3. IV catheter implanted • 4. Samples drawn at 10, 11, 11:30, 12:30, 1:30, 2:30, 3, 3:30, 4:30, 5:30 • 5. Squalamine capsule, 200 mg at 10:30 A • 6. Bread and butter, 2 P • 7. Blood samples collected and processed as in the Control study
# GLP-1 analyses (Total immunoreactive GLP-1): A Millipore ELISA kit was used (Cat #EZGLP1T-36K).
# [4] = test system: Irritable Bowel Syndrome (IBS); assay: Oral squalamine in Irritable Bowel Syndrome, single subject; type: in vivo, human
# Source text: A person, in otherwise good health, was suffering from the “mixed” form of IBS since early childhood. The condition was characterized by a failure to feel “cleared” after the passage of a stool; occasional crampiness; abdominal bloating and a sense of “fullness.” The condition caused them to be “conscious of their bowels” throughout the day, and frequently interrupted their sleep. Attempts to relieve themself on the toilet would generally be ineffective, leaving them with the feeling of “still having to go.”
# On day 1 the individual was administered a single 200 mg capsule of squalamine, orally, on an empty stomach with water. Within 2 hrs they experienced nausea, at 3 hrs they vomited, followed soon after by the passage of about 200 ml of clear discharge rectally. By 3.5 hrs the nausea had passed. They ate normally at lunch and dinner. […] Slept better than they had in many years. The first stool was passed on Day 4, was soft and passed easily, and then successively on Days 5, 6, 7, and 8. Beginning at Day 6, they began to experience the prior GI symptoms. By Day 8, their usual GI symptoms had returned.
# A second dosing trial was begun on Day 15, with a 50 mg capsule administered. […] Bowel movement was passed on Day 17. A 25 mg capsule was administered on Day 19. […] It was assumed that 50 mg dosed every other day was an optimum regimen. The individual remained on a dosing schedule of 50 mg orally every other day.
# [5] = single 200 mg capsule Day 1, empty stomach
substance,measurement,setting,value
squalamine,increase of the frequency of contractions,[1],about 2 fold
same,peak pressure of MMC waves,[1]; versus before application,did not differ; also recorded: no apparent effect
same,dose recovered from the stool,[2],Approximately 80%
same,amount of alpha-synuclein membrane bound with increasing squalamine,"[3]; lipid 2.4 mM, alpha-synuclein 10 μM, squalamine in 40 μM increments",linear decrease
same,effect on circular dichroism spectrum of alpha-synuclein alone,[3]; no vesicles,no effect
same,decrease of tumor mass by MRI,"gliobastoma; 100 mg from mid October 2013, with everolimus and temozolimide protocol, early December 2013",about 20%
same,residual tumor volume relative to volume after the surgery/radiation,"gliobastoma; 100 mg, beginning of February 2014",60%
same,Squalamine Response: Clinical,"GLP-1; 200 mg capsule at 10:30 A, light headedness 11 A-12:15, nausea 1:45, diarrhea 2 P, 2:20, 2:36, 3:15",Episodes of light headedness; also recorded: Episode of mild nausea; also recorded: Passage of watery diarrhea
same,effect on the release of GLP-1 from the small intestine,"GLP-1; 200 mg oral versus empty capsule, same subject",No significant effect
same,GLP-1 blood level,"GLP-1; blood sample at 1:30, 200 mg capsule at 10:30 A, meal at 2 P",9 pM
same,GLP-1 blood level,"GLP-1; blood sample at 2:30, 200 mg capsule at 10:30 A, meal at 2 P",8 pM
same,GLP-1 blood level,"GLP-1; blood sample at 3:00, 200 mg capsule at 10:30 A, meal at 2 P",8 pM
same,GLP-1 blood level,"GLP-1; blood sample at 3:30, 200 mg capsule at 10:30 A, meal at 2 P",6 pM
same,GLP-1 blood level,"GLP-1; blood sample at 4:30, 200 mg capsule at 10:30 A, meal at 2 P",5 pM
same,GLP-1 blood level,"GLP-1; blood sample at 5:30, 200 mg capsule at 10:30 A, meal at 2 P",3 pM
same,GLP-1 blood level,"GLP-1; blood sample at 10 (before 200 mg capsule at 10:30 A), total immunoreactive GLP-1",6 pM
same,GLP-1 blood level,"GLP-1; blood sample at 11:30, 200 mg capsule at 10:30 A, meal at 2 P",4 pM
same,GLP-1 blood level,"GLP-1; blood sample at 11, 200 mg capsule at 10:30 A, meal at 2 P",5 pM
same,GLP-1 blood level,"GLP-1; blood sample at 12:30, 200 mg capsule at 10:30 A, meal at 2 P",10 pM
same,response to 25 mg capsule,[4]; 25 mg capsule on Day 19,By Day 21 the previous symptoms of IBS were returning
same,response to 50 mg capsule,[4]; 50 mg capsule on Day 15,Neither nausea nor a discharge was experienced; also recorded: Sense of bowel quiet was experienced
same,IBS status on maintenance dosing,"[4]; 50 mg orally every other day, at 10 months",no longer experiences symptoms of IBS; also recorded: Bowel movements are of normal consistency; also recorded: Sleep is no longer interrupted by urgency to defecate
same,"nausea had passed, time after dosing",[4]; [5],≤ 3.5 h
same,volume of clear discharge passed rectally,[4]; [5],about 200 ml
same,"vomiting, time after dosing",[4]; [5],3 h
same,"nausea, time of onset after dosing","[4]; single 200 mg capsule Day 1, empty stomach, person with mixed IBS",≤ 2 h
same,first stool passed,[4]; single 200 mg capsule on Day 1,Day 4
same,period of bowel quiet without cramping or urgency,[4]; single 200 mg capsule on Day 1,Day 1 through Day 5
same,return of usual GI symptoms,[4]; single 200 mg capsule on Day 1,Day 8
